Results on two compounds are retold here after patent publication US20250289848A1, “PEPTIDOMIMETIC INHIBITORS OF B-CATENIN/TCF PROTEIN-PROTEIN INTERACTION” (H. LEE MOFFITT CANCER CENTER AND RESEARCH INSTITUTE, INC., priority 2018, published 2025).

One experiment relates to SW480 cells. Kind of experiment: MTS cell viability assay, SW480. The class given is cell-based. Particulars: Homo sapiens, SW480, 72 h; read-out: MTs IC50 ± SD SW480. (Tetrazolium assays rely on reduction of a dye to a coloured formazan, in cell work by metabolically active cells.)
In experiment [1] the test system is TOPFlash luciferase reporter in β-catenin activated HEK293 cells. Kind of experiment: TOPFlash luciferase reporter assay. The class given is cell-based. Conditions: 24 h treatment, wild-type Tcf4 binding sites. As for the experimental part:
(§1) FuGENE 6 (E2962, Promega) in a 96-well plate format was used for the transfection of HEK293 cells according to the manufacturer's instructions. HEK293 cells were co-transfected with 45 ng of the TOPFlash or FOPFlash reporter gene, 135 ng of pcDNA3.1-p-catenin and 20 ng of pCMV-RL normalization reporter gene. Cells were cultured in DMEM and 10% fatal bovine serum at 37° C. for 24 h, and different concentrations of inhibitors were then added. After 24 h, the luciferase reporter activity was measured using the Dual-Glo system (E2940, Promega). Normalized luciferase activity in response to the treatment with the inhibitors was compared with that obtained from the cells treated with DMSO. Experiments were performed in triplicate.
(In general: A reporter such as luciferase makes a cellular process visible.)

For the next experiment, the system named is BT-20 cells. In words: MTS cell viability assay, BT-20. Format: cell-based. Particulars: Homo sapiens, BT-20, 72 h; read-out: MTs IC50 ± SD BT-20.
The test system of another experiment is MDA-MB-468 cells. In words: MTS cell viability assay, MDA-MB-468. Format: cell-based. Particulars: Homo sapiens, MDA-MB-468, 72 h, read-out: MTs IC50 ± SD MDA-MB-468.
Experiment [2] deals with FOPFlash luciferase reporter in β-catenin activated HEK293 cells. Kind of experiment: FOPFlash luciferase reporter assay. The class given is cell-based. Particulars: 24 h treatment, mutant Tcf4 binding sites. As for the experimental part: as §1
The test system of the next experiment is HCT116 cells. Kind of experiment: MTS cell viability assay, HCT116. The class given is cell-based. Conditions: Homo sapiens, HCT-116, 72 h; read-out: MTs IC50 ± SD HCT116.
The next experiment concerns A549 cells. Kind of experiment: MTS cell viability assay, A549. The class given is cell-based. Particulars: Homo sapiens, A549, 72 h; read-out: MTs IC50 ± SD A549.
For experiment [3], the system named is MDA-MB-231 cells. Kind of experiment: MTS cell viability assay, MDA-MB-231. The class given is cell-based. Conditions: Homo sapiens, MDA-MB-231, 72 h; read-out: MTs IC50 ± SD MDA-MB-231.
For the next experiment, the system named is β-catenin/APC PPI. In words: Co-IP experiment, HCT116 cells, β-catenin/APC. Conditions: 24 h, concentrations sufficient to disrupt β-catenin/Tcf PPI.
The test system of experiment [4] is MDA-MB-231 cells. In words: Scratch wound healing assay. The class given is cell-based, human. Particulars: 10 μM; 10% serum; mitomycin; 14 h. As for the experimental part:
Scratch wound healing assay. To the confluent monolayer of MDA-MB-231 cells in 24-well plates, wounds will be made by scraping a sterile 200 μL pipette tip. Cells were maintained in DMEM containing 10% FBS with 10 μg/mL mitomycin to inhibit cell proliferation. Images of wounds were taken immediately and 14 h after wounding.
(§2) Scratch wound healing and Matrigel invasion assays using TNBC MDA-MB-231 cells were conducted.

The test system of another experiment is β-catenin/Tcf PPI. The class given is cell-based. Conditions: HCT116 cells, 24 h treatment.
In experiment [5] the test system is Wnt/β-catenin hyperactive cancer cells. In words: MTS cell viability assay, summary over cell lines. The class given is cell-based. Conditions: result in words.
Experiment [6] relates to MDA-MB-231 cells. Kind of experiment: Matrigel invasion assay. Format: cell-based, human. Conditions: 10 μM; 24 h. As for the experimental part: Matrigel invasion assay. MDA-MB-231 cells (5×10^4) suspended in 200 p L starvation medium were added to the upper chamber of a Matrigel coated insert (6.5 mm diameter, […]; Corning 353097), and the insert was placed in a 24-well plate containing […] DMEM medium with 10% FBS. Inhibitors were added to both upper and the lower chambers. Invasion assays were performed for 24 h and cells were fixed with 3.7% formaldehyde. Cells were stained with crystal violet staining solution. The cells on the upper side of the insert were removed with a cotton swab. Five randomly selected fields (×10 objectives) on the lower side of the insert were photographed, and the invaded cells were counted.
as §2

A further experiment relates to β-catenin/E-cadherin PPI. Kind of experiment: Co-IP experiment, HCT116 cells, β-catenin/E-cadherin. Particulars: 24 h, concentrations sufficient to disrupt β-catenin/Tcf PPI.

“Also recorded” adds a separate entry of the source.

Regarding `NC(=O)CC[C@H](NC(=O)[C@H](Cc1nn[nH]n1)NC(=O)[C@H](Cc1ccc2ccccc2c1)NC(=O)c1cc2cc(Cl)ccc2[nH]1)C(=O)Nc1ccc(OC(F)(F)F)cc1` [Compound 55, (S)-2-((S)-2-((S)-2-(5-Chloro-1H-indole-2-carboxamido)-3-(naphthalen-2-yl)propanamido)-3-(2H-tetrazol-5-yl)propanamido)-N^1-(4-(trifluoromethoxy)phenyl)pentanediamide], the IC50 (as a rule, the midpoint of a concentration-inhibition curve) with SW480 cells was 28.2 ± 4.63 µM; with BT-20 cells, 38.4 ± 3.99 µM; with MDA-MB-468 cells, 29.2 ± 4.02 µM; in the experiment on HCT116 cells, 63.9 ± 7.48 µM; in the experiment with A549 cells, 60.3 ± 10.5 µM; with MDA-MB-231 cells [3] it was 34.3 ± 6.42 µM. For the same compound, the “TOPFlash luciferase activity (transactivation of Wnt/β-catenin signaling)” value in experiment [1] is given as “inhibited”. The “FOPFlash luciferase reporter activity” value in experiment [2] is “did not inhibit”.
Consider `CCOC(=O)CC[C@H](NC(=O)[C@H](Cc1nn[nH]n1)NC(=O)[C@H](Cc1ccc2ccccc2c1)NC(=O)c1cc2cc(Cl)ccc2[nH]1)C(=O)Nc1ccc(OC(F)(F)F)cc1` [Compound 56, Ethyl (S)-4-((S)-2-((S)-2-(5-chloro-1H-indole-2-carboxamido)-3-(naphthalen-2-yl)propanamido)-3-(2H-tetrazol-5-yl)propanamido)-5-oxo-5-((4-(trifluoromethoxy)phenyl)amino)pentanoate], for which the “effect on the β-catenin/APC PPI (co-IP)” value in the experiment on β-catenin/APC PPI is reported as “without affecting; also recorded: had no effect”. Also, the IC50 came to 14.1 ± 2.86 µM with SW480 cells; 16.5 ± 2.23 µM in the experiment on BT-20 cells; 7.25 ± 0.72 µM in the experiment with MDA-MB-468 cells; 69.4 ± 7.21 µM in the experiment with HCT116 cells; 86.4 ± 8.58 µM with A549 cells; 12.3 ± 2.16 µM with MDA-MB-231 cells [3]. Moreover, the “TOPFlash luciferase activity (transactivation of Wnt/β-catenin signaling)” value in experiment [1] was “suppressed transactivation of Wnt/β-catenin signaling in dose-dependent manners; also recorded: inhibited”. Besides, the “migration of TNBC MDA-MB-231 cells (wound healing)” value with MDA-MB-231 cells [4] was “selectively inhibited; also recorded: inhibited the migration; also recorded: effectively inhibit”. Moreover, the “disruption of the β-catenin/Tcf PPI (co-IP)” value in the experiment on β-catenin/Tcf PPI was “disrupted the β-catenin/Tcf PPI; also recorded: dose-dependently inhibited”. Moreover, in experiment [5], the “viability of Wnt/β-catenin hyperactive cancer cells” value is recorded as “selectively inhibited”. In addition, in the experiment with MDA-MB-231 cells [6], the “invasion of TNBC MDA-MB-231 cells (Matrigel)” value is on record as “selectively inhibited; also recorded: inhibited invasion; also recorded: effectively inhibit”. Also, the “FOPFlash luciferase reporter activity” value in [2] was “did not inhibit”. For the same compound, in the experiment with β-catenin/E-cadherin PPI, the “effect on the β-catenin/E-cadherin PPI (co-IP)” value is recorded as “without affecting; also recorded: had no effect”.
